Assay results taken from patent US20050026847A1, “Methods for treating, preventing, or inhibiting injuries, cell membrane stabilization, and calcium mobilization using pseudopterosin compounds” (priority 2003, published 2005).

How the values were obtained:
[1] = test system: T. thermophila; assay: Phagocytosis activity assay (India ink phagosome formation); type: cell-based, Tetrahymena thermophila; conditions: for effect on rate of phagosome formation / phagocytic activity: 10 minutes drug/ink exposure, FIGS. 2-4; for effect of Pertussis toxin pretreatment on the compound's effect on phagocytosis: Pertussis toxin pretreatment (5 minutes), FIGS. 5-6
Description: Log-phase T. thermophila cultures were grown in 2% protease peptone, at 25° C. The cells were washed and resuspended in 10 mM HEPES, pH 7.4 (250,000 cells/ml). Test compounds were mixed with diluted India ink (1:25, v:v) in order to visualize the newly formed phagosomes. At t=0, the drug/ink mixture was added to the Tetrahymena cells, and at t=10 minutes, […] samples of cell suspension were removed and fixed in 10% formaldehyde. At least about 100 random cells from each sample were then examined using a light microscope. Phagocytic activity was assessed by calculating the ratio of cells with food vacuoles compared to the cells with no food vacuoles.

[2] = test system: Heterocapsa pygmaea cells; assay: Injury response assay, physical injury (ultrasound-induced oxidative burst, H2O2 by DCFH-DA); type: cell-based; conditions: FIG. 16, read-out: inhibition of oxidative burst in injured cells
Description: The released reactive oxygen species were calibrated to H2O2, the least labile of the group. […] Specifically, by homogenization in a blender with 0.22 μm filtered seawater and 10 mM EDTA, and filtered through 4 layers of cheesecloth. Algal symbionts were pelleted out by centrifugation at 250×g and subsequently washed 10 times with 40 ml clean filtered seawater and pelleted by centrifugation at 750×g. The cells were further purified on Percoll® (Sigma, St. […] DNA staining using DAPI detected on epifluorescence microscopy was used to detect contaminants due to bacterial or coral cells. Cells isolated from live coral were diluted to a final concentration of about 5×10^5 cells/ml using a hemocytometer and maintained in filtered seawater. Heterocapsa pygmaea is grown in culture in F-1 media without silica. The cells were harvested in log growth phase and diluted to about 5×10^5 cells/ml using a hemocytometer. […] H2O2 concentration was calculated from a standard curve from DCFH-DA fluorescence (0.05 mM, redox sensitive probe, requires esterase (82 U) for detection of H2O2). Fluoresence was measured using a Perkin Elmer LS50B Fluorimeter, excitation 488 nm and emission 525 nm.

[3] = test system: Tetrahymena cells; assay: Ca++ signaling assay (Calcium Orange fluorescence, intracellular calcium release); type: cell-based, Tetrahymena thermophila; conditions: for effect of Pertussis toxin pretreatment on the compound's calcium release activity: 0.5 μg/ml Pertussis toxin for 5 minutes prior to treatment
Description: Cell density was adjusted to 500,000 cells/ml using a 10 mM HEPES and 2.5 mM Probenecid buffer (pH 7.4) (Sigma, St. Louis, Mo.). The cells were loaded with 3 μM Calcium Orange AM ester (Molecular Probes, Eugene, Oreg.) for 90 minutes in the dark. The cells were washed, resuspended in buffer, and incubated for 1 hour to allow de-esterification of the fluorescent probe. The cells were washed twice and placed in a 2 ml quartz cuvet. Calcium release was measured by an LS50B Perkin Elmer Fluorimeter (Ex=549, Em=576) (Perkin Elmer, Wellesley, Mass.) for a 20 minute period. The cells were exposed to the test compounds for 20 minutes and then the fluorescence was recorded. In some experiments, the cells were pretreated with 0.5 μg/ml Pertussis toxin for 5 minutes. FIGS. 7A-7C show Tetrahymena cells loaded with Calcium Orange under fluorescence microscopy (X400). Upon calcium binding to calcium orange, the intensity increases thereby indicating the release of intracellular calcium. FIG. 7A is a control.

[4] = Cell-free hydrogen peroxide scavenging (direct antioxidant) assay; conditions: 50 μM
Description: A mixture of hydrogen peroxide and water without cells was mixed with the DCFH-DA dye and 82U of esterase as described above. To this mixture the drugs were added and results monitored on the fluorimeter.

[5] = test system: H. pygmaea cells; assay: Injury response assay, chemical injury (mastoparan-induced oxidative burst); type: cell-based, Heterocapsa pygmaea; conditions: 10 μM, FIG. 14
Description: (§1) To determine the protective effect of pseudopterosin compounds against chemical injury, mastoparan was administered to test cells and released reactive oxygen species calibrated to H2O2 was measured as an indicator of injury.
(§2) Symbiodinium spp. cells were isolated, prepared and identified as described in Example 3. Heterocapsa pygmaea was grown in culture in F-1 media without silica. The cells were harvested in log growth phase and diluted to about 5×10^5 cells/ml using a hemocytometer. […] The oxidative burst was prevented or inhibited by about 71% by incubating the H. pygmaea cells with a mixture comprising 25 μM of pseudopterosin compounds for 1 hour prior to exposure to mastoparan.
(§3) H2O2 concentration was calculated from a standard curve from DCFH-DA fluorescence (0.05 mM, redox sensitive probe, requires esterase (82 U) for detection of H2O2). Fluorescence was measured using a Perkin Elmer LS50B Fluorimeter, excitation 488 nm and emission 525 nm.

[6] = test system: Symbiodinium spp. cells; assay: Injury response assay, chemical injury (mastoparan) in Symbiodinium; type: cell-based; conditions: 10 μM, FIG. 14
Description: as §1, §2, §3

Molecule	effect on rate of phagosome formation / phagocytic activity [1]	effect of Pertussis toxin pretreatment on the compound's effect on phagocytosis [1]	effect of Pertussis toxin pretreatment on the compound's calcium release activity [3]	also measured
[Ca+2].[Cl-].[Cl-] [CaCl2]	increases the rate of phagocytic activity			
c1ccc2c(c1)[I+]c1ccccc1-2 [DPI, Diphenylene iodonium chloride]				inhibition at 50 µM [2]: ~96%
CC(C)=C[C@H]1C[C@H](C)[C@H]2CC[C@H](C)c3c(O[C@@H]4OC[C@@H](O)[C@H](O)[C@H]4O)c(O)c(C)c1c32 [PsA, Pseudopterosin A]	decreases the rate of phagosome formation in a dose dependent manner	completely blocks the effect of PsA on phagocytosis	Pertussis toxin blocks PsA activity	effect of mastoparan on PsA activity ([3]; FIG. 10A): Mastoparan does not inhibit PsA; effect of Verapamil or Gd3+ on the effects of PsA (intracellular calcium release and phagosome formation) ([3]; T. thermophila): not inhibited by Verapamil or Gd^3+; effect of suramin pretreatment on PsA activity ([3]; suramin pretreatment (5 minutes), FIG. 10B): blocks PsA activity
COc1ccc2c(c1)CC[C@@H]1[C@@H]2CC[C@]2(C)[C@@H](NCCCCCCN3C(=O)C=CC3=O)CC[C@@H]12 [Pseudopterosin U73122]		not blocked by Pertussis toxin pretreatment	Pertussis toxin does not inhibit U73122 activity	
O=C1O[C@H]([C@@H](O)CO)C(O)=C1O [ascorbic acid]				immediate reduction of the fluorescent signal in cell free system [4]: about 60%
mastoparan			inhibits the effects of mastoparan	effect of mastoparan on oxidative burst in H. pygmaea [5]: cause a large oxidative burst; effect of mastoparan on Symbiodinium spp. cells [6]: no effect
